US20220167618A1, “PESTICIDALLY ACTIVE AZOLE-AMIDE COMPOUNDS” (SYNGENTA CROP PROTECTION AG, priority 2019, published 2022)

Tests used:
[1] = tested on: Diabrotica balteata (Corn Root Worm); assay: Example B1: Diabrotica balteata (corn root worm), sprayed maize sprouts; format: in vivo; settings: 96 h, application rate 200 ppm, L2 larvae, 4 days after infestation, read-out: control in at least one of the two categories (mortality or growth inhibition)
Description: Example B1: Diabrotica balteata (Corn Root Worm)
Maize sprouts placed onto an agar layer in 24-well microtiter plates were treated with aqueous test solutions prepared from 10′000 ppm DMSO stock solutions by spraying. After drying, the plates were infested with L2 larvae (6 to 10 per well). The samples were assessed for mortality and growth inhibition in comparison to untreated samples 4 days after infestation.

[2] = tested on: Plutella xylostella (Diamondback Moth); assay: Example B13: Plutella xylostella (diamondback moth), artificial diet, 96-well; format: in vivo; settings: 216 h, application rate 500 ppm, eggs/L1 larvae, 9 days after infestation
Description: Example B13: Plutella xylostella (Diamondback Moth)
96-well microtiter plates containing artificial diet were treated with aqueous test solutions, prepared from 10′000 ppm DMSO stock solutions, by a liquid handling robot. After drying, eggs (˜30 per well) were infested onto a netted lid which was suspended above the diet. The eggs hatch and L1 larvae move down to the diet. The samples were assessed for mortality 9 days after infestation.

[3] = tested on: Plutella xylostella (Diamond Back Moth); assay: Example B5: Plutella xylostella (diamond back moth), artificial diet, 24-well; format: in vivo; settings: 192 h, application rate 200 ppm, eggs, 8 days after infestation, read-out: control in at least one of the two categories (mortality or growth inhibition)
Description: Example B5: Plutella xylostella (Diamond Back Moth)
24-well microtiter plates with artificial diet were treated with aqueous test solutions prepared from 10′000 ppm DMSO stock solutions by pipetting. After drying, Plutella eggs were pipetted through a plastic stencil onto a gel blotting paper and the plate was closed with it. The samples were assessed for mortality and growth inhibition in comparison to untreated samples 8 days after infestation.

[4] = tested on: Spodoptera littoralis (Egyptian Cotton Leaf Worm); assay: Example B9: Spodoptera littoralis (Egyptian cotton leaf worm), sprayed cotton leaf discs; format: in vivo; settings: foliar, 72 h, application rate 200 ppm, L1 larvae, 3 days after infestation, read-out: control in at least one of the three categories (mortality, anto-feedant or growth inhibition)
[5] = tested on: Chilo suppressalis (Striped Rice Stemborer); assay: Example B4: Chilo suppressalis (striped rice stemborer), artificial diet; format: in vivo; settings: 144 h, application rate 200 ppm, L2 larvae, 6 days after infestation, read-out: control in at least one of the three categories (mortality, anti-feedant or growth inhibition)
Description: Example B4: Chilo suppressalis (Striped Rice Stemborer)
24-well microtiter plates with artificial diet were treated with aqueous test solutions prepared from 10′000 ppm DMSO stock solutions by pipetting. After drying, the plates were infested with L2 larvae (6-8 per well). The samples were assessed for mortality, anti-feeding effect, and growth inhibition in comparison to untreated samples 6 days after infestation. Control of Chilo suppressalis by a test sample is given when at least one of the categories mortality, anti-feedant effect, and growth inhibition is higher than the untreated sample.

[6] = tested on: Euschistus heros (Neotropical Brown Stink Bug); assay: Example B2: Euschistus heros (neotropical brown stink bug), sprayed soybean leaves; format: in vivo; settings: 120 h, application rate 200 ppm, N2 nymphs, 5 days after infestation, read-out: control in at least one of the two categories (mortality or growth inhibition)
Description: Example B2: Euschistus heros (Neotropical Brown Stink Bug)
Soybean leaves on agar in 24-well microtiter plates were sprayed with aqueous test solutions prepared from 10′000 ppm DMSO stock solutions. After drying the leaves were infested with N2 nymphs. The samples were assessed for mortality and growth inhibition in comparison to untreated samples 5 days after infestation.

melting point [°C] | SMILES | percent control (mortality or growth inhibition) at 200 ppm [1] [%] | mortality at 500 ppm [2] [%] | percent control (mortality or growth inhibition) at 200 ppm [3] [%] | percent control (mortality, anti-feedant or growth inhibition) at 200 ppm [4] [%] | percent control (mortality, anti-feedant or growth inhibition) at 200 ppm [5] [%] | percent control (mortality or growth inhibition) at 200 ppm [6] [%]
 | CC(NC(=O)c1cc(C2CC2)cc(C(F)(F)F)c1)c1nc(Br)nn1-c1ncc(OCC(F)(F)F)cn1 (stereo not drawn) [Compound P5, N-[1-[5-bromo-2-[5-(2,2,2-trifluoroethoxy)pyrimidin-2-yl]-1,2,4-triazol-3-yl]ethyl]-3-cyclopropyl-5-(trifluoromethyl)benzamide] | ≥ 80 | ≥ 80 | ≥ 80 | ≥ 80 | ≥ 80 | 
 | CC(NC(=O)c1cc(C2CC2(F)F)cc(C(F)(F)F)c1)c1nc(Br)nn1-c1ccc(C#N)cn1 (stereo not drawn) [Compound P6, N-[1-[5-bromo-2-(5-cyano-2-pyridyl)-1,2,4-triazol-3-yl]ethyl]-3-(2,2-difluorocyclopropyl)-5-(trifluoromethyl)benzamide] | ≥ 80 | ≥ 80 | ≥ 80 | ≥ 80 | ≥ 80 | 
 | CC(NC(=O)c1cc(C2CC2(F)F)cc(C(F)(F)F)c1)c1nc(Br)nn1-c1ncc(OCC(F)F)cn1 (stereo not drawn) [Compound P8, N-[1-[5-bromo-2-[5-(2,2-difluoroethoxy)pyrimidin-2-yl]-1,2,4-triazol-3-yl]ethyl]-3-(2,2-difluorocyclopropyl)-5-(trifluoromethyl)benzamide] | ≥ 80 | ≥ 80 | ≥ 80 | ≥ 80 | ≥ 80 | 
 | CC(NC(=O)c1cc(C2CC2(F)F)cc(C(F)(F)F)c1)c1nc(Br)nn1-c1ncc(OC(F)F)cn1 (stereo not drawn) [Compound P12, N-[1-[5-bromo-2-[5-(difluoromethoxy)pyrimidin-2-yl]-1,2,4-triazol-3-yl]ethyl]-3-(2,2-difluorocyclopropyl)-5-(trifluoromethyl)benzamide] | ≥ 80 | ≥ 80 | ≥ 80 | ≥ 80 | ≥ 80 | 
 | CC(NC(=O)c1cc(C2CC2)cc(C(F)(F)F)c1)c1nc(Br)nn1-c1ncc(OCC(F)F)cn1 (stereo not drawn) [Compound P18, N-[1-[5-bromo-2-[5-(2,2-difluoroethoxy)pyrimidin-2-yl]-1,2,4-triazol-3-yl]ethyl]-3-cyclopropyl-5-(trifluoromethyl)benzamide] | ≥ 80 | ≥ 80 | ≥ 80 | ≥ 80 | ≥ 80 | 
 | CC(NC(=O)c1cc(C2CC2(F)F)cc(C(F)(F)F)c1)c1nc(Br)nn1-c1ccc(OCC(F)F)cn1 (stereo not drawn) [Compound P22, N-[1-[5-bromo-2-[5-(2,2-difluoroethoxy)-2-pyridyl]-1,2,4-triazol-3-yl]ethyl]-3-(2,2-difluorocyclopropyl)-5-(trifluoromethyl)benzamide] |  | ≥ 80 | ≥ 80 | ≥ 80 | ≥ 80 | 
 | CC(NC(=O)c1cc(C(F)(F)F)cc(S(=O)(=O)C(F)(F)F)c1)c1nc(Br)nn1-c1ncc(OCC(F)F)cn1 (stereo not drawn) [Compound P24, N-[1-[5-bromo-2-[5-(2,2-difluoroethoxy)pyrimidin-2-yl]-1,2,4-triazol-3-yl]ethyl]-3-(trifluoromethyl)-5-(trifluoromethylsulfonyl) benzamide] |  | ≥ 80 | ≥ 80 | ≥ 80 | ≥ 80 | 
 | CC(NC(=O)c1cc(C2CC2)cc(C(F)(F)F)c1)c1nc(Br)nn1-c1ccc(OCC(F)F)cn1 (stereo not drawn) [Compound P27, N-[1-[5-bromo-2-[5-(2,2-difluoroethoxy)-2-pyridyl]-1,2,4-triazol-3-yl]ethyl]-3-cyclopropyl-5-(trifluoromethyl)benzamide] |  | ≥ 80 | ≥ 80 |  | ≥ 80 | 
152 to 154 | CC(NC(=O)c1cc(C(F)(F)F)nc(C2(C#N)CC2)c1)c1nc(Br)nn1-c1ccc(OC(F)F)cn1 (stereo not drawn) [Compound P30, N-[1-[5-bromo-2-[5-(difluoromethoxy)-2-pyridyl]-1,2,4-triazol-3-yl]ethyl]-2-(1-cyanocyclopropyl)-6-(trifluoromethyl)pyridine-4-carboxamide] |  |  |  |  |  | 
140 to 142 | CC(NC(=O)c1cc(C(F)(F)F)cc(C(F)(F)C2CC2)c1)c1nc(Br)nn1-c1ccc(OCC(F)F)cn1 (stereo not drawn) [Compound P31, N-[1-[5-bromo-2-[5-(2,2-difluoroethoxy)-2-pyridyl]-1,2,4-triazol-3-yl]ethyl]-3-[cyclopropyl(difluoro)methyl]-5-(trifluoromethyl)benzamide] |  |  |  |  |  | 
147 to 149 | CC(NC(=O)c1cc(C(F)(F)F)nc(C2(C#N)CC2)c1)c1nc(Br)nn1-c1ccc(OCC(F)F)cn1 (stereo not drawn) [Compound P32, N-[1-[5-bromo-2-[5-(2,2-difluoroethoxy)-2-pyridyl]-1,2,4-triazol-3-yl]ethyl]-2-(1-cyanocyclopropyl)-6-(trifluoromethyl)pyridine-4-carboxamide] |  |  |  |  |  | 
82 to 84 | CC(NC(=O)c1cc(C(F)(F)F)nc(C2(C#N)CC2)c1)c1nc(Br)nn1-c1ccc(OCC(F)(F)F)cn1 (stereo not drawn) [Compound P33, N-[1-[5-bromo-2-[5-(2,2,2-trifluoroethoxy)-2-pyridyl]-1,2,4-triazol-3-yl]ethyl]-2-(1-cyanocyclopropyl)-6-(trifluoromethyl)pyridine-4-carboxamide] |  |  |  |  |  | 
157 to 159 | CC(NC(=O)c1cc(C(F)(F)F)nc(C2(C#N)CC2)c1)c1nc(Br)nn1-c1ncc(OCC(F)(F)F)cn1 (stereo not drawn) [Compound P34, N-[1-[5-bromo-2-[5-(2,2,2-trifluoroethoxy)pyrimidin-2-yl]-1,2,4-triazol-3-yl]ethyl]-2-(1-cyanocyclopropyl)-6-(trifluoromethyl)pyridine-4-carboxamide] |  |  |  |  |  | 
 | CC(NC(=O)c1cc(C(F)(F)F)cc(C(C)(C)C#N)c1)c1nc(Br)nn1-c1ccc(OC(F)F)cn1 (stereo not drawn) [Compound P37, N-[1-[5-bromo-2-[5-(difluoromethoxy)-2-pyridyl]-1,2,4-triazol-3-yl]ethyl]-3-(1-cyano-1-methyl-ethyl)-5-(trifluoromethyl)benzamide] | ≥ 80 |  | ≥ 80 | ≥ 80 | ≥ 80 | ≥ 80
 | CC(NC(=O)c1cc(C(F)(F)F)cc(C(C)(C)C#N)c1)c1nc(Br)nn1-c1ncc(OCC(F)(F)F)cn1 (stereo not drawn) [Compound P39, N-[1-[5-bromo-2-[5-(2,2,2-trifluoroethoxy)pyrimidin-2-yl]-1,2,4-triazol-3-yl]ethyl]-3-(1-cyano-1-methyl-ethyl)-5-(trifluoromethyl)benzamide] | ≥ 80 |  | ≥ 80 | ≥ 80 | ≥ 80 | 
 | CC(NC(=O)c1cc(C(F)(F)F)cc(C(C)(C)C#N)c1)c1nc(Br)nn1-c1ccc(OCC(F)F)cn1 (stereo not drawn) [Compound P40, N-[1-[5-bromo-2-[5-(2,2-difluoroethoxy)-2-pyridyl]-1,2,4-triazol-3-yl]ethyl]-3-(1-cyano-1-methyl-ethyl)-5-(trifluoromethyl)benzamide] |  | ≥ 80 | ≥ 80 | ≥ 80 | ≥ 80 | 
